Measured values: patent US11104648B2, “Pyrazole derivative” (Zhejiang Research Institute of Chemical Industry Co., Ltd., priority 2018, dated 2021)
Read-outs that look alike come from different tables or passages of the source.

Tests used:
Assay type in all cases: in vivo
[1] = test system: Eggs of Tetranychus Cinnabarinus; assay: Activity assay of eggs of Tetranychus cinnabarinus (spray method, ovicidal); conditions: Tetranychus cinnabarinus; for pest or weed control at 2 µg/mL: concentration 2 mg/L
Outline: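 Female mites laid eggs on broad bean leaves for 24 h, adults removed, eggs sprayed with compound in DMF (≤10%)/1‰ Tween 80. Held at 26±2° C, 70–80% humidity, 16 h light; unhatched eggs counted dead once blank control hatched. Three replicates.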

[2] = test system: adult Tetranychus cinnabarinus; assay: Activity assay of adult Tetranychus cinnabarinus (whole-plant spray on bean seedlings); conditions: 48 h; for pest or weed control at 1.25 µg/mL: concentration 1.25 mg/L
Outline: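 Bean seedlings at two-true-leaf stage, infested with adult mites and base count taken, sprayed whole-plant with compound in DMF (≤10%) diluted in 1‰ Tween 80. Three replicates per treatment kept in standard observation room. Surviving mites counted at 48 h to give death rate.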

[3] = test system: Tetranychus cinnabarinus Nymphs; assay: Activity assay of Tetranychus cinnabarinus nymphs (spray on broad bean leaves); conditions: 48 h; for pest or weed control at 2 µg/mL: concentration 2 mg/L; for pest or weed control at 0.5 µg/mL: concentration 0.5 mg/L
Outline: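 Compound in DMF (≤10%) diluted in 1‰ Tween 80 water was sprayed onto broad bean leaves carrying nymphs hatched from eggs laid by female adults over 24 h. Kept at 26±2° C., 70%–80% humidity, 16 h light; mortality (no response to touch) assessed after 48 h, three replicates with blank control.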

[4] = concentration 5 mg/L, spray, non-incubated eggs counted as dead, read-out: ovicidal activity
[5] = concentration 2.5 mg/L, read-out: adult mite-killing activity
[6] = concentration 2.5 mg/L, read-out: nymph-killing activity
[7] = spray, read-out: ovicidal activity
[8] = eggs, parallel determination, read-out: Death rate (%)
[9] = adult mites, parallel determination, read-out: Death rate (%)
[10] = read-out: adult mite-killing activity
[11] = read-out: nymph-killing activity
[12] = nymphs, parallel determination, read-out: Death rate (%)

| Compound | pest or weed control at 5 µg/mL [1, 4] | pest or weed control at 2.5 µg/mL [2, 5] | pest or weed control at 2.5 µg/mL [3, 6] | also measured |
| --- | --- | --- | --- | --- |
| COCC(=O)OC(C)O/C(=C(/C#N)c1ccc(C(C)(C)C)cc1)c1cc(C)nn1C (stereo not drawn) [Compound 33] | ≥ 90% | ≥ 90% | ≥ 95% | – |
| C#CCOC(=O)OCO/C(=C(/C#N)c1ccc(C(C)(C)C)cc1)c1cc(C)nn1C [Compound 476] | ≥ 90% | ≥ 90% | ≥ 95% | – |
| Cc1nn(C)c(/C(OC(C)OC(=O)c2ccccc2)=C(\C#N)c2ccc(C(C)(C)C)cc2)c1C (stereo not drawn) [Compound 189] | ≥ 90% | ≥ 90% | ≥ 95% | – |
| CCn1nc(C)cc1/C(OC(C)OC(C)=O)=C(\C#N)c1ccc(C(C)(C)C)cc1 (stereo not drawn) [Compound 251] | ≥ 90% | ≥ 90% | ≥ 95% | pest or weed control at 2 µg/mL [1, 7]: ≥ 90%; pest or weed control at 2 µg/mL [1, 8]: 100%; pest or weed control at 1.25 µg/mL [2, 9]: 100%; pest or weed control at 1.25 µg/mL [2, 10]: ≥ 90%; pest or weed control at 2 µg/mL [3, 11]: ≥ 90%; pest or weed control at 0.5 µg/mL [3, 12]: 100% |
| COCC(=O)OC(C)O/C(=C(/C#N)c1ccc(C(C)(C)C)cc1)c1c(C)c(C)nn1C (stereo not drawn) [Compound 183] | ≥ 90% | ≥ 90% | ≥ 95% | – |
| CCn1nc(C)c(C)c1/C(OCOC(=O)COC)=C(\C#N)c1ccc(C(C)(C)C)cc1 [Compound 383] | ≥ 90% | ≥ 90% | ≥ 95% | – |
| CCCC(=O)OCOC(=C(C#N)c1ccc(C(C)(C)C)cc1)c1ccccc1C(F)(F)F [Compound 8-4, reference compound] | < 30% | < 80% | < 80% | pest or weed control at 2 µg/mL [1, 7]: 0%; pest or weed control at 2 µg/mL [1, 8]: 0%; pest or weed control at 1.25 µg/mL [2, 9]: 50%; pest or weed control at 1.25 µg/mL [2, 10]: < 50%; pest or weed control at 0.5 µg/mL [3, 11]: < 30%; pest or weed control at 0.5 µg/mL [3, 12]: 15% |
| CCn1nc(C)cc1/C(OC(C)OC(=O)COC)=C(\C#N)c1ccc(C(C)(C)C)cc1 (stereo not drawn) [Compound 258] | ≥ 90% | ≥ 90% | ≥ 95% | – |
| CCn1nc(C)c(C)c1/C(OC(C)OC(=O)CC(C)C)=C(\C#N)c1ccc(C(C)(C)C)cc1 (stereo not drawn) [Compound 407] | ≥ 90% | ≥ 90% | ≥ 95% | – |
| CCn1nc(C)c(C)c1/C(OCOC(=O)c1ccccc1)=C(\C#N)c1ccc(C(C)(C)C)cc1 [Compound 389] | ≥ 90% | ≥ 90% | ≥ 95% | – |
| CSCC(=O)OCO/C(=C(/C#N)c1ccc(C(C)(C)C)cc1)c1c(Cl)c(C)nn1C [Compound 85] | ≥ 90% | ≥ 90% | ≥ 95% | – |
| CCCCC(=O)OCO/C(=C(/C#N)c1ccc(C(C)(C)C)cc1)c1c(Cl)c(C)nn1C [Compound 81] | ≥ 90% | ≥ 90% | ≥ 95% | – |
| CC(=O)OC(C)O/C(=C(/C#N)c1ccc(C(C)(C)C)cc1)c1c(C)c(C)nn1C (stereo not drawn) [Compound 176] | ≥ 90% | ≥ 90% | ≥ 95% | – |
| CCn1nc(C)cc1/C(OCOC(=O)C(C)C)=C(\C#N)c1ccc(C(C)(C)C)cc1 [Compound 229] | ≥ 90% | ≥ 90% | ≥ 95% | – |
| CCn1nc(C)c(C)c1/C(OC(C)OC(=O)COC)=C(\C#N)c1ccc(C(C)(C)C)cc1 (stereo not drawn) [Compound 408] | ≥ 90% | ≥ 90% | ≥ 95% | – |
| CCn1nc(C)cc1/C(OC(C)OC(=O)C(C)(C)C)=C(\C#N)c1ccc(C(C)(C)C)cc1 (stereo not drawn) [Compound 255] | ≥ 90% | ≥ 90% | ≥ 95% | pest or weed control at 2 µg/mL [1, 7]: ≥ 90%; pest or weed control at 2 µg/mL [1, 8]: 96%; pest or weed control at 1.25 µg/mL [2, 9]: 95%; pest or weed control at 1.25 µg/mL [2, 10]: ≥ 90%; pest or weed control at 2 µg/mL [3, 11]: ≥ 90%; pest or weed control at 0.5 µg/mL [3, 12]: 95% |
| CSCC(=O)OCO/C(=C(/C#N)c1ccc(C(C)(C)C)cc1)c1c(C)c(C)nn1C [Compound 160] | ≥ 90% | ≥ 90% | ≥ 95% | – |
| CCn1nc(C)c(Cl)c1/C(OCOC(=O)CC(C)C)=C(\C#N)c1ccc(C(C)(C)C)cc1 [Compound 307] | ≥ 90% | ≥ 90% | ≥ 95% | – |
| CCn1nc(C)cc1/C(OC(C)OC(=O)OCCC(C)C)=C(\C#N)c1ccc(C(C)(C)C)cc1 (stereo not drawn) [Compound 586] | ≥ 90% | ≥ 90% | ≥ 95% | – |
| CCCCC(=O)OCO/C(=C(/C#N)c1ccc(C(C)(C)C)cc1)c1cc(C)nn1C [Compound 6] | ≥ 90% | ≥ 90% | ≥ 95% | – |
| Cc1cc(/C(OC(C)OC(=O)C(F)(F)F)=C(\C#N)c2ccc(C(C)(C)C)cc2)n(C)n1 (stereo not drawn) [Compound 38] | ≥ 90% | ≥ 90% | ≥ 95% | – |
| CCC(=O)OC(C)O/C(=C(/C#N)c1ccc(C(C)(C)C)cc1)c1cc(C)nn1CC (stereo not drawn) [Compound 252] | ≥ 90% | ≥ 90% | ≥ 95% | pest or weed control at 2 µg/mL [1, 7]: ≥ 90%; pest or weed control at 2 µg/mL [1, 8]: 100%; pest or weed control at 1.25 µg/mL [2, 9]: 100%; pest or weed control at 1.25 µg/mL [2, 10]: ≥ 90%; pest or weed control at 2 µg/mL [3, 11]: ≥ 90%; pest or weed control at 0.5 µg/mL [3, 12]: 100% |
| CCn1nc(C)c(Cl)c1/C(OC(C)OC(=O)C1CCCCC1)=C(\C#N)c1ccc(C(C)(C)C)cc1 (stereo not drawn) [Compound 336] | ≥ 90% | ≥ 90% | ≥ 95% | – |
| CCC(=O)OC(C)O/C(=C(/C#N)c1ccc(C(C)(C)C)cc1)c1c(C)c(C)nn1C (stereo not drawn) [Compound 177] | ≥ 90% | ≥ 90% | ≥ 95% | – |
| CCn1nc(C)c(C)c1/C(OC(C)OC(=O)c1ccccc1)=C(\C#N)c1ccc(C(C)(C)C)cc1 (stereo not drawn) [Compound 414] | ≥ 90% | ≥ 90% | ≥ 95% | – |
| Cc1nn(C)c(/C(OC(C)OC(=O)CF)=C(\C#N)c2ccc(C(C)(C)C)cc2)c1Cl (stereo not drawn) [Compound 112] | – | – | – | pest or weed control at 5 µg/mL ([1]; read-out: ovicidal activity): ≥ 90%; pest or weed control at 2.5 µg/mL [2, 10]: ≥ 90%; pest or weed control at 2.5 µg/mL [3, 11]: ≥ 95% |
| CCn1nc(C)c(C)c1/C(OCOC(=O)OC)=C(\C#N)c1ccc(C(C)(C)C)cc1 [Compound 931] | ≥ 90% | ≥ 90% | ≥ 95% | pest or weed control at 2 µg/mL [1, 7]: ≥ 90%; pest or weed control at 2 µg/mL [1, 8]: 98%; pest or weed control at 1.25 µg/mL [2, 9]: 95%; pest or weed control at 1.25 µg/mL [2, 10]: ≥ 90%; pest or weed control at 2 µg/mL [3, 11]: ≥ 90%; pest or weed control at 0.5 µg/mL [3, 12]: 95% |
| CCn1nc(C)c(Cl)c1/C(OCOC(=O)C(C)(C)CC)=C(\C#N)c1ccc(C(C)(C)C)cc1 [Compound 316] | ≥ 90% | ≥ 90% | ≥ 95% | – |
| COCCOC(=O)OCO/C(=C(/C#N)c1ccc(C(C)(C)C)cc1)c1cc(C)nn1C [Compound 468] | ≥ 90% | ≥ 90% | ≥ 95% | – |
